Assay results published in patent US12538922B2, “Composition and methods for parasite control” (priority 2019, dated 2026).
Counter-ions that a name gives are not always drawn. Like-named read-outs stand apart in the source and are kept apart here.

Tests used:
[1] = system: R. sanguineus tick larvae; settings: for Repellence Median (Q1-Q3) [%] / Knockdown Median (Q1-Q3) [%]: pure compound; for Repellence Median (Q1-Q3) [%]: median of replicates; for Knockdown Median (Q1-Q3) [%]: motility reduction over 9 min; for Knockdown Minimum effective concentration / Repellence Minimum effective concentration: smallest concentration with median activity above 50% significance limit
Experimental: FIG. 1 Schematic representation of the tick repellent test. 30-60 tick larvae are deposited in the non-treated area of a circular arena (8.96 cm^2) whereby one quadrant of the surface (2.25 cm^2) is treated. After 1 minute, the distribution of ticks in the treated and untreated areas is measured for a duration of 2 minutes. The repellent/deterrent effect is expressed in %: 100% means that ticks completely avoided the treated surface. Toxicity is measured in the same setup over a duration of 8 minutes and the mortality is expressed in % motility reduction between the beginning and the end of the 8 minutes. Dosages are expressed as a quantity (mg or molarity) per surface unit (m^2), as the compound or extract is deposited at the bottom of the well. Pure compounds: dose given in micromoles/m^2; Extracts: dose given in micrograms/m^2. Tests were run in triplicates.
The assay is used to evaluate the repellent/deterrent potential of a test compound or extract. The test includes a preliminary assessment of knockdown efficacy as a secondary endpoint. Knockdown can be defined as a state of intoxication and paralysis that usually precedes death (Wickham et al. (1974) Pesticide Science 5(5): 657-664). The test relies on the questing behavior of ticks that explore their habitat to find a suitable host hunting site and their propensity to avoid areas treated with repellent or irritating substances. Tick knockdown is expressed as a reduction in total motility over a defined period of time, and not by collecting and counting the number of dead and live ticks at the end of the exposure period.
Plant extracts or synthetic pure alkaloids diluted in methanol (extracts) or ethanol (alkaloids) were deposited on the bottom of wells in a six-well plate. Only one quadrant ([…]) of the bottom surface of each well was treated. The solvent was left to evaporate. The final concentration of the plant extracts was, therefore, expressed in mg/m^2, or in micromoles per square meter (μmol/m^2) for the synthetic alkaloids. Final concentrations applied for plant extracts were 893 (R. sanguineus adults only), 446, 141, 44.6, 14.1, and 4.46 mg/m^2, and 300, 100, 30, 10, and 3 μmol/m^2 for pure alkaloids. Approximately 50 R. sanguineus tick larvae, and exactly 5 R. sanguineus adults, or 5 I. ricinus nymphs were added to the untreated area of each well. Positive (DEET, commercial tick repellent) and negative (methanol or ethanol) controls were evaluated in parallel. Each concentration tested was run in three or more test replicates. After a 1-min incubation on a heating plate, the frequency of tick movement in the treated quadrant and in each of the untreated quadrants was recorded by machine vision. Tick movement on the untreated surface was computed as the median of movement on the three untreated quadrants. To estimate deterrence recordings were performed over a period of 2 min for R. sanguineus larvae, and for 3 minutes for R. sanguineus adults and I. ricinus nymphs, after the 1-min pre-exposure period. To assess knockdown effect, recording was extended to 9 min (starting at the 1-min pre-exposure period and lasting an additional 8 minutes).
Deterrence activity was calculated as follows: Percent deterrence=1−(movements on treated area/movements on untreated area)×100.
A difference of 50% between total movements recorded in the treated area versus movements recorded in the untreated area was considered significant.
The tick knockdown effect was calculated similarly: Percent knockdown=1−(movements at the end of the imaging period/movements at the beginning of the imaging period)×100.
A difference of 50% between total movements recorded during the 1 min pre-exposure and total movements measured at 9 min of recording was considered significant.

[2] = system: adult Aedes aegypti mosquitoes; assay: Mosquito repellency assay (landings and time on warm treated surface); type: in vivo; settings: for Mean probing time [%, compared to control]: 100% = same time as on vehicle-treated surface; for Repellency, % reduction in landings vs vehicle control: repellency as percentage reduction of control, 100% = no landings
Experimental: The compound of the invention is mixed with ethanol to make a composition that can be applied to a surface and allowed to dry. After the surface is treated with the compounds of the invention and dried, it is heated to human body temperature, and the number of landings and the total time spent by the mosquitoes on the warm surface by adult Aedes aegypti mosquitoes is recorded automatically by machine vision to measure repellency of each compound.
Repellency (based on the number of individual landings on the warm surface) is expressed as a percentage reduction of the control, where the average number of mosquitoes landing on a warm surface treated only with the vehicle solvent is counted. 100% means no mosquitoes landed on the warm surface.
For mosquitoes that still landed on the warm surface, the time spent on the warm surface is also recorded and expressed as a percentage of the control, corresponding to the average time that mosquitoes spent on the same warm surface when treated only with the vehicle solvent. 100% mean that the mosquitoes spent the same time on the treated warm surface as on a warm surface treated only with the vehicle solvent.
Each compound/dose is tested in triplicate using a surface of 18.9 cm2 and 100 microliters of solution without the compound (the placebo) or with the compound dilution spread on the surface, and allowed to dry before the test. The average and standard error on triplicates is calculated. The control (using only vehicle solvent) is run with ethanol. The same population of mosquitoes is exposed first to the warm surface treated with the vehicle solvent, then to the surface treated with the compound. The concentration of the solution comprising the test compound was adjusted to ensure the treatment dosage of the compound is according to the final concentration per surface units area in the table.

[3] = Table 5, N = 3 subset of Table 4
[4] = Table 5, N = 3 subset of Table 4, dose 30
[5] = Table 5, N = 3 subset of Table 4, dose 300
[6] = concentration 10 μmol/m^2, dihydrochloride
[7] = concentration 30 μmol/m^2, dihydrochloride
[8] = concentration 100 μmol/m^2, dihydrochloride
[9] = dose 380 μmol/m^2, listed as S enantiomer HCl salt, dihydrochloride

| Structure (SMILES) | MEC (μmol/m^2) [1, 3] | % repellency [1, 4] | % repellency [1, 5] | Repellence Median (Q1-Q3) [%] ([1]; concentration 3 μmol/m^2) | Knockdown Median (Q1-Q3) [%] ([1]; concentration 3 μmol/m^2) | Repellence Median (Q1-Q3) [%] [1, 6] | Knockdown Median (Q1-Q3) [%] ([1]; concentration 10 μmol/m^2) | Repellence Median (Q1-Q3) [%] [1, 7] | Knockdown Median (Q1-Q3) [%] ([1]; concentration 30 μmol/m^2) | Repellence Median (Q1-Q3) [%] [1, 8] | Repellence Median (Q1-Q3) [%] ([1]; concentration 300 μmol/m^2) | Knockdown Minimum effective concentration [1] | Repellence Minimum effective concentration ([1]; dihydrochloride) | Mean probing time [%, compared to control] ([2]; dose 760 μmol/m^2) | Repellency, % reduction in landings vs vehicle control ([2]; dose 760 μmol/m^2) | other results |
| --- | --- | --- | --- | --- | --- | --- | --- | --- | --- | --- | --- | --- | --- | --- | --- | --- |
| C1=CC[C@H](c2cccnc2)NC1 [(R)-anatabine dihydrochloride] | 30 μmol/m^2 | 62% | 97% | 20.8% | 0% | 34.4% | 7.5% | 62.0% | 11.1% | 84.3% | 88.3% | 100 μmol/m^2 | 30 μmol/m^2 | 48.5% | 42.9% | % repellency ([1]; Table 5, N = 3 subset of Table 4, dose 3): 0%; % mortality [1, 5]: 24%; Repellence Median (Q1-Q3) [%] ([1]; concentration 10 μmol/m^2, listed as (R)-anatabine, dihydrochloride): 34%; Repellence Median (Q1-Q3) [%] ([1]; concentration 30 μmol/m^2, listed as (R)-anatabine, dihydrochloride): 62%; Repellence Median (Q1-Q3) [%] ([1]; concentration 100 μmol/m^2, listed as (R)-anatabine, dihydrochloride): 84%; Knockdown Median (Q1-Q3) [%] [1, 8]: 54.5%; Knockdown Median (Q1-Q3) [%] ([1]; concentration 300 μmol/m^2, dihydrochloride): 52.7%; Mean probing time [%, compared to control] ([2]; dose 380 μmol/m^2): 128.9%; Repellency, % reduction in landings vs vehicle control ([2]; dose 380 μmol/m^2): 8.1% |
| C1=CC[C@@H](c2cccnc2)NC1 [(S)-anatabine dihydrochloride] | 300 μmol/m^2 | 12% | 78% | 38.4% | 0% | 38.1% | 4.2% | 54.4% | 14.7% | 86.2% | 79.8% | >300 μmol/m^2 | 30 μmol/m^2 | 62.7% | 28.2% | Repellence Median (Q1-Q3) [%] ([1]; concentration 10 μmol/m^2, listed as (S)-anatabine, dihydrochloride): 38%; Repellence Median (Q1-Q3) [%] ([1]; concentration 30 μmol/m^2, listed as (S)-anatabine, dihydrochloride): 54%; Repellence Median (Q1-Q3) [%] ([1]; concentration 100 μmol/m^2, listed as (S)-anatabine, dihydrochloride): 86%; Knockdown Median (Q1-Q3) [%] ([1]; concentration 100 μmol/m^2): 23.8%; Knockdown Median (Q1-Q3) [%] ([1]; concentration 300 μmol/m^2): 14.2%; Mean probing time [%, compared to control] [2, 9]: 71.5%; Repellency, % reduction in landings vs vehicle control [2, 9]: 25.4% |
